Reference: patent US12448389B2, “BRM targeting compounds and associated methods of use” (Prelude Therapeutics Incorporated, priority 2020, dated 2025)

Legend:
[1] = target: T1, SMARCA2-HiBiT (Homo sapiens, UniProt P51531); assay: SMARCA2 HiBiT degradation assay in HeLa cells; assay type: cell-based; conditions: 18 hours incubation; for DC50: read-out: HeLa_HiBit-SM2 DC50; for Dmax: HeLa, read-out: HeLa-HiBit-SM2 Dmax (%)
T1 construct: SMARCA2-HiBiT knock-in Hela monoclonal cell (CS302366); host or cells: HeLa monoclonal knock-in line (CRISPR HiBiT knock-in at the endogenous locus, heterozygous)
T1 sequence (P51531 whole entry): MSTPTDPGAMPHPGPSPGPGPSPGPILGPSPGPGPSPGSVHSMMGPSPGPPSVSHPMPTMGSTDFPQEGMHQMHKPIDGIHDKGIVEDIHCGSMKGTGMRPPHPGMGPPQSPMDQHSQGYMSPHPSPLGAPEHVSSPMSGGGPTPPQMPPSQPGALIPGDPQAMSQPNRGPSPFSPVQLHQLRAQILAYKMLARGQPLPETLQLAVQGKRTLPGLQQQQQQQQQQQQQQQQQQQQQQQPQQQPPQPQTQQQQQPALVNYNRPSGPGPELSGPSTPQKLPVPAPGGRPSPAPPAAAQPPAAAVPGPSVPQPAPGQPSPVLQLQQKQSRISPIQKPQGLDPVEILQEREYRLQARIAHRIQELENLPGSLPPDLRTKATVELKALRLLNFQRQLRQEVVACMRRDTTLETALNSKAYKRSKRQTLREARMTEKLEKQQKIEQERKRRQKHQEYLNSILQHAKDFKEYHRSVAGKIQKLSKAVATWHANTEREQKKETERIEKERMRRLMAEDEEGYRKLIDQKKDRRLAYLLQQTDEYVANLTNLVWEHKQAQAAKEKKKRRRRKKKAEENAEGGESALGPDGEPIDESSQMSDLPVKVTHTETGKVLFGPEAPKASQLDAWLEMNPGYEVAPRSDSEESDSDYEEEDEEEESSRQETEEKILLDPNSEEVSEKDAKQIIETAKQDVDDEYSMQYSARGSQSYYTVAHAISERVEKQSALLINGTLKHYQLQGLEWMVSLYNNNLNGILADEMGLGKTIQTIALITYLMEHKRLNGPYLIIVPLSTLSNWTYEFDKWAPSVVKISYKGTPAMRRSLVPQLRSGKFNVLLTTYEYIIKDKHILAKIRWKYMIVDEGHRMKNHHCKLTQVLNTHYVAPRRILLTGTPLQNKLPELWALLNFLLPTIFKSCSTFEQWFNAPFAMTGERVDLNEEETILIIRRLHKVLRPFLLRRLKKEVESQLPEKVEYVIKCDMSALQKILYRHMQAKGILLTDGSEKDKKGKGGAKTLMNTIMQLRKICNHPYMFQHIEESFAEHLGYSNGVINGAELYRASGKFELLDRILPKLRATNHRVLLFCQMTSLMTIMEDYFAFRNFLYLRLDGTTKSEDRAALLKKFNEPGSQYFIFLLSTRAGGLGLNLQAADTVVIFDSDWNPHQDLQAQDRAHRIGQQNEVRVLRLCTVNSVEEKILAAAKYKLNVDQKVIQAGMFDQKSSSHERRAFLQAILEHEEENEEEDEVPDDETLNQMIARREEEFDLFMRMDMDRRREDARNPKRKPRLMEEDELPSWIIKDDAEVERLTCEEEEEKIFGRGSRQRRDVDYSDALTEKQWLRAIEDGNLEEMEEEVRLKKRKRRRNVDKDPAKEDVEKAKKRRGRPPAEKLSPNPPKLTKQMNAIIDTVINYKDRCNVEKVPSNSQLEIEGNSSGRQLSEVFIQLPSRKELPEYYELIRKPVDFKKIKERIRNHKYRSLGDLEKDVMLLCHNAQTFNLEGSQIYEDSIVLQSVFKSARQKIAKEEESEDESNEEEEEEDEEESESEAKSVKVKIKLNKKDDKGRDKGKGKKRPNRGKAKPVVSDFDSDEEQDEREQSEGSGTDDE
Summary of the method: (§1)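 HeLa monoclonal lines with heterozygous HiBiT knock-in were seeded at 2500 cells/well in EMEM with 10% FBS and treated with compound for 18 h at 37 °C. Remaining tagged protein was measured by Nano-Glo HiBiT lytic luminescence after 30–60 min at RT, and values came from curve fitting.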

[2] = target: T2, SMARCA4-HiBiT (Homo sapiens, UniProt P51532); assay: SMARCA4 HiBiT degradation assay in HeLa cells; assay type: cell-based; conditions: 18 hours incubation; for DC50: read-out: HeLa-HiBit-SM4 DC50; for Dmax: HeLa, read-out: HeLa-HiBit-SM4 Dmax (%)
T2 construct: SMARCA4-HiBiT knock-in Hela monoclonal cell (CS3023226); host or cells: HeLa monoclonal knock-in line (CRISPR HiBiT knock-in at the endogenous locus, heterozygous)
T2 sequence (P51532 whole entry): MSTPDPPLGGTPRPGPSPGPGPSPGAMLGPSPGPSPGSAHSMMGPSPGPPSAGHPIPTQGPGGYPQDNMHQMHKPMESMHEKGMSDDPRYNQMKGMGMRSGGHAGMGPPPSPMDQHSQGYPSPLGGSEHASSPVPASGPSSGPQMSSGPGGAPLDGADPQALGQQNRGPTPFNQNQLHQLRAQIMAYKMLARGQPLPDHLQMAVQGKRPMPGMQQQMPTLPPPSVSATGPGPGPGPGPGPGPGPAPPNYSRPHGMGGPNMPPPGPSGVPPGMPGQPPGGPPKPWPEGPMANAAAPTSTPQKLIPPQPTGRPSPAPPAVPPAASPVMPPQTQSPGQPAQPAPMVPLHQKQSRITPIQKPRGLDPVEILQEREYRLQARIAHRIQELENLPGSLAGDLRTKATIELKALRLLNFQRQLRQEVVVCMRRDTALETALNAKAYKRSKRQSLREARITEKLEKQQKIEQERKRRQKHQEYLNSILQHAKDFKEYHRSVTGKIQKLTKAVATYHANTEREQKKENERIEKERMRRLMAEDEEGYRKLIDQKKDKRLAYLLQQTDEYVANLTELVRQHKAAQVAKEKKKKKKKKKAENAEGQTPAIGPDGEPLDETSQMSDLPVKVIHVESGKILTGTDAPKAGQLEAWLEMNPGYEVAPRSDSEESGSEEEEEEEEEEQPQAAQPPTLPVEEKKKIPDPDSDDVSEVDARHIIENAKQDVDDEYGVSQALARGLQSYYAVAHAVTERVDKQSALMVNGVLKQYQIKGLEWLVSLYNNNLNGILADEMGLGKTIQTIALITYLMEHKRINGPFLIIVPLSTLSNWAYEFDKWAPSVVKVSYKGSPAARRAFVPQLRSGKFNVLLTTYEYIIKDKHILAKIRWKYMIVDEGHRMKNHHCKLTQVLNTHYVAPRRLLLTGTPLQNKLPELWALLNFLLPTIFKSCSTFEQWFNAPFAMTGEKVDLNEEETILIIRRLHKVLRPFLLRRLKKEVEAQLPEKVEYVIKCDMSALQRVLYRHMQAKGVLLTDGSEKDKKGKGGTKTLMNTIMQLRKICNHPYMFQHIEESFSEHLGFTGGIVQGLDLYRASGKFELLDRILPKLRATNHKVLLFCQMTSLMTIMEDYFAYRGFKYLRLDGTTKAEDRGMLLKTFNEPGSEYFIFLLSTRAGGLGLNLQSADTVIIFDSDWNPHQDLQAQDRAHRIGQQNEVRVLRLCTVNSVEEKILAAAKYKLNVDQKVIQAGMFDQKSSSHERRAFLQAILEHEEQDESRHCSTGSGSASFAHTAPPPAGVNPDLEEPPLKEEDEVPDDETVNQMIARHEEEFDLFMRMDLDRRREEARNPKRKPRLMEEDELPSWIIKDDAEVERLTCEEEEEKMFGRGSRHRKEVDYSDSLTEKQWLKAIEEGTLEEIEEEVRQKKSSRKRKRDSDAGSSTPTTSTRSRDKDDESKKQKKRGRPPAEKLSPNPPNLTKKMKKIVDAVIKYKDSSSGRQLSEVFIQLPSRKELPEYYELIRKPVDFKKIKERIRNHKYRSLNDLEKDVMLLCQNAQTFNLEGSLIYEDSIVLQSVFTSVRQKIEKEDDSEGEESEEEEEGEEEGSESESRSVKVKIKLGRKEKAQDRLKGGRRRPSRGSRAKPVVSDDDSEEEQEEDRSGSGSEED
Summary of the method: as §1

Structure (SMILES) | DC50 [1] | Dmax [1] | DC50 [2] | Dmax [2]
O=C1CCC(N2C(=O)c3ccc(N4CC(CN5CCC(CN6CCN7c8cc(-c9ccccc9O)nnc8NC[C@H]7C6)CC5)C4)cc3C2=O)C(=O)N1 (stereo partly drawn) [Example 247, 2-(2,6-dioxopiperidin-3-yl)-5-(3-((4-(((S)-2-(2-hydroxyphenyl)-5,6,6a,7,9,10-hexahydro-8H-pyrazino[1′,2′:4,5]pyrazino[2,3-c]pyridazin-8-yl)methyl)piperidin-1-yl)methyl)azetidin-1-yl)isoindoline-1,3-dione] | < 10 nM | > 85% | < 10 nM | > 85%
O=C1CCC(N2Cc3ccc(N4CCC(CN5C[C@@H]6[C@H](C5)[C@H]6C(=O)N5CCN6c7cc(-c8ccccc8O)nnc7NC[C@H]6C5)CC4)cc3C2=O)C(=O)N1 (stereo partly drawn) [Example 96, 3-(6-(4-(((1R,5S,6r)-6-((S)-2-(2-hydroxyphenyl)-6,6a,7,8,9,10-hexahydro-5H-pyrazino[1′,2′:4,5]pyrazino[2,3-c]pyridazine-8-carbonyl)-3-azabicyclo[3.1.0]hexan-3-yl)methyl)piperidin-1-yl)-1-oxoisoindolin-2-yl)piperidine-2,6-dione] | < 10 nM | 50 to 75% | 10 to 100 nM | ≤ 50%
O=C1CCC(N2Cc3cc(C4CCN(C5CCN(CCN6CCN7c8cc(-c9ccccc9O)nnc8NC[C@H]7C6)CC5)CC4)ccc3C2=O)C(=O)N1 (stereo partly drawn) [Example 212, 3-(5-(1′-(2-((S)-2-(2-hydroxyphenyl)-5,6,6a,7,9,10-hexahydro-8H-pyrazino[1′,2′:4,5]pyrazino[2,3-c]pyridazin-8-yl)ethyl)-[1,4′-bipiperidin]-4-yl)-1-oxoisoindolin-2-yl)piperidine-2,6-dione] | < 10 nM | > 85% | < 10 nM | > 85%
CC(C1CCN(c2ccc3c(c2)C(=O)N(C2CCC(=O)NC2=O)C3=O)CC1)N1CCC(CN2CCN3c4cc(-c5ccccc5O)nnc4NCC3C2)CC1 (stereo in doubt) [Example 160, 2-(2,6-dioxopiperidin-3-yl)-5-[4-[1-[4-[[(10S)-4-(2-hydroxyphenyl)-1,5,6,8,12-pentazatricyclo[8.4.0.02,7]tetradeca-2(7),3,5-trien-12-yl]methyl]piperidin-1-yl]ethyl]piperidin-1-yl]isoindole-1,3-dione] | < 10 nM | 75 to 85% | < 10 nM | 50 to 75%
O=C1CCC(N2Cc3cc(N4CCC(CNC56CCC(C(=O)N7CCN8c9cc(-c%10ccccc%10O)nnc9NC[C@H]8C7)(CC5)CC6)CC4)ccc3C2=O)C(=O)N1 (stereo partly drawn) [Example 84, 3-(5-(4-(((4-((S)-2-(2-hydroxyphenyl)-6,6a,7,8,9,10-hexahydro-5H-pyrazino[1 ′,2′:4,5]pyrazino[2,3-c]pyridazine-8-carbonyl)bicyclo[2.2.2]octan-1-yl)amino)methyl)piperidin-1-yl)-1-oxoisoindolin-2-yl)piperidine-2,6-dione] | < 10 nM | > 85% | < 10 nM | 75 to 85%
O=C1CCC(N2C(=O)c3ccc(N4CCC(CNC5CCN(C(=O)N6CCN7c8cc(-c9ccccc9O)nnc8NC[C@H]7C6)CC5)CC4)cc3C2=O)C(=O)N1 (stereo partly drawn) [Example 140, 2-(2,6-dioxopiperidin-3-yl)-5-(4-(((l-((S)-2-(2-hydroxyphenyl)-6,6a,7,8,9,10-hexahydro-5H-pyrazino[1′,2′:4,5]pyrazino[2,3-c]pyridazine-8-carbonyl)piperidin-4-yl)amino)methyl)piperidin-1-yl)isoindoline-1,3-dione] | < 10 nM | 75 to 85% | < 10 nM | 75 to 85%
O=C1CCC(N2C(=O)c3ccc(N4CCC(CN5C[C@H]6C[C@H](CN7CCN8c9cc(-c%10ccccc%10O)nnc9NC[C@H]8C7)C[C@H]6C5)CC4)cc3C2=O)C(=O)N1 (stereo partly drawn) [Example 45, 2-(2,6-dioxopiperidin-3-yl)-5-(4-(((3aR,5s,6aS)-5-(((S)-2-(2-hydroxyphenyl)-5,6,6a,7,9,10-hexahydro-8H-pyrazino [1′,2′:4,5]pyrazino[2,3-c]pyridazin-8-yl)methyl)hexahydrocyclopenta[c]pyrrol-2(1H)-yl)methyl)piperidin-1-yl)isoindoline-1,3-dione] | < 10 nM | > 85% | < 10 nM | > 85%
CC1CN(CCCC2CCN(c3cccc4c3C(=O)N(C3CCC(=O)NC3=O)C4=O)CC2)CCC1N1CCN2c3cc(-c4ccccc4O)nnc3NC[C@H]2C1 (stereo partly drawn) [Example 124, 2-(2,6-dioxopiperidin-3-yl)-4-(4-(3-(4-((S)-2-(2-hydroxyphenyl)-5,6,6a,7,9,10-hexahydro-811-pyrazino[1′,2′:4,5]pyrazino[2,3-c]pyridazin-8-yl)-3-methylpiperidin-1-yl)propyl)piperidin-1-yl) isoindoline-1,3-dione] | < 10 nM | 50 to 75% | < 10 nM | 50 to 75%
O=C1CCC(N2C(=O)c3ccc(N4CCC(CN5CC(CN6CCN7c8cc(-c9ccccc9O)nnc8NC[C@H]7C6)C5)CC4)cc3C2=O)C(=O)N1 (stereo partly drawn) [Example 36, 2-(2,6-dioxopiperidin-3-yl)-5-(4-((3-(((S)-2-(2-hydroxyphenyl)-5,6,6a,7,9,10-hexahydro-8H-pyrazino[1′,2′:4,5]pyrazino[2,3-c]pyridazin-8-yl)methyl)azetidin-1-yl)methyl)piperidin-1-yl)isoindoline-1,3-dione] | < 10 nM | > 85% | < 10 nM | 75 to 85%
O=C1CCC(N2C(=O)c3ccc(N4CCC(CN5CC6CC(CN7CCN8c9cc(-c%10ccccc%10O)nnc9NC[C@H]8C7)C6C5)C(F)(F)C4)cc3C2=O)C(=O)N1 (stereo partly drawn) [Example 188, 5-[3,3-difluoro-4-[[6-[[(10S)-4-(2-hydroxyphenyl)-1,5,6,8,12-pentazatricyclo[8.4.0.02,7]tetradeca-2(7),3,5-trien-12-yl]methyl]-3-azabicyclo[3.2.0]heptan-3-yl]methyl]piperidin-1-yl]-2-(2,6-dioxopiperidin-3-yl)isoindole-1,3-dione] | < 10 nM | > 85% | < 10 nM | 75 to 85%
O=C1CCC(N2C(=O)c3ccc(N4CCC(CN5CCC(CCCN6CCN7c8cc(-c9ccccc9O)nnc8NC[C@H]7C6)CC5)CC4)cc3C2=O)C(=O)N1 (stereo partly drawn) [Example 228, 2-(2,6-dioxopiperidin-3-yl)-5-(4-((4-(3-((S)-2-(2-hydroxyphenyl)-5,6,6a,7,9,10-hexahydro-8H-pyrazino[1′,2′:4,5]pyrazino[2,3-c]pyridazin-8-yl)propyl)piperidin-1-yl)methyl)piperidin-1-yl)isoindoline-1,3-dione] | < 10 nM | > 85% | < 10 nM | > 85%
O=C1CCC(N2C(=O)c3ccc(N4CCN(C5CCN(CCN6CCN7c8cc(-c9ccccc9O)nnc8NC[C@H]7C6)C5)CC4)cc3C2=O)C(=O)N1 (stereo partly drawn) [Example 221, 2-(2,6-dioxopiperidin-3-yl)-5-(4-(1-(2-((S)-2-(2-hydroxyphenyl)-5,6,6a,7,9,10-hexahydro-8H-pyrazino[1′,2′:4,5]pyrazino[2,3-c]pyridazin-8-yl)ethyl)pyrrolidin-3-yl)piperazin-1-yl) isoindoline-1,3-dione] | < 10 nM | 75 to 85% | < 10 nM | 50 to 75%
O=C1CCC(N2Cc3ccc(N4CCC(CN5CCC(CN6CCN7c8cc(-c9ccccc9O)nnc8NC[C@H]7C6)CC5CO)CC4)cc3C2=O)C(=O)N1 (stereo partly drawn) [Example 235, 3-(6-(4-((2-(hydroxymethyl)-4-(((S)-2-(2-hydroxyphenyl)-5,6,6a,7,9,10-hexahydro-8H-pyrazino[1′,2′:4,5]pyrazino[2,3-c]pyridazin-8-yl)methyl)piperidin-1-yl)methyl)piperidin-1-yl)-1-oxoisoindolin-2-yl)piperidine-2,6-dione] | < 10 nM | > 85% | < 10 nM | > 85%
O=C1CCC(N2C(=O)c3cccc(N4CCC(CCCN5CCC(N6CCN7c8cc(-c9ccccc9O)nnc8NC[C@H]7C6)C(F)C5)CC4)c3C2=O)C(=O)N1 (stereo partly drawn) [Example 73, 2-(2,6-dioxopiperidin-3-yl)-4-(4-(3-(3-fluoro-4-((S)-2-(2-hydroxyphenyl)-5,6,6a,7,9,10-hexahydro-8H-pyrazino[1′,2′:4,5]pyrazino[2,3-c]pyridazin-8-yl)piperidin-1-yl)propyl)piperidin-1-yl)isoindoline-1,3-] | < 10 nM | 75 to 85% | < 10 nM | 50 to 75%
CCC1CN(CC2CCN(c3ccc4c(c3)C(=O)N(C3CCC(=O)NC3=O)C4=O)CC2)CCN1C(=O)N1CCN2c3cc(-c4ccccc4O)nnc3NC[C@H]2C1 (stereo partly drawn) [Example 269, 2-(2,6-dioxopiperidin-3-yl)-5-(4-((3-ethyl-4-((S)-2-(2-hydroxyphenyl)-6,6a,7,8,9,10-hexahydro-5H-pyrazino[1′,2′:4,5]pyrazino[2,3-c]pyridazine-8-carbonyl)piperazin-1-yl)methyl)piperidin-1-yl)isoindoline-1,3-dione] | < 10 nM | 75 to 85% | 10 to 100 nM | 50 to 75%
